Measurements: patent publication US7253177B2, “Synthesis and antimalarial activity of pyrrolo[3,2-f]quinazoline-1,3-diamine derivatives” (United States of America as Represented by the Secretary of …, priority 2004, dated 2007)

How the values were obtained:
[1] = test system: Plasmodium yoelii (17x) sporozoites; assay: Sporozoite induced test in mice; format: in vivo; details: P. yoelii; for Number of Mice Cured: oral
Protocol: B. Antimalarial Activities: (a). In Vitro Antimalarial Studies. The in vitro assays were conducted by using a modification of the semiautomated microdilution technique of Desjardins et al and Chulay et al.. Four P. falciparum malaria parasite clones, from CDC Indochina III (W-2), CDC Sierra Leone I (D-6), Southeast Asia Isolates (TM91C235) and RCS (Isolates from Brazil) were utilized in susceptibility testing. They were derived by direct visualization and micromanipulation from patient isolates. The W-2 clone is susceptible to mefloquine but resistant to chloroquine, sulfadoxine, pyrimethamine, and quinine, whereas the D-6 clone is naturally resistant to mefloquine but susceptible to chloroquine, sulfadoxine, pyrimethamine and quinine. Test compounds were initially dissolved in DMSO and diluted 400 fold in RPMI 1640 culture medium supplemented with 25 mM Hepes, 32 mM NaHCO3 and 10% Albumax I (Gibco BRL, Grand Island, N.Y.). These solutions were subsequently serially diluted two-fold with a Biomek 1000 (Beckman, Fullerton, Calif.) over 11 different concentrations. The parasites were exposed to serial dilutions of each compound for 48 hrs and incubated at 37° C. with 5% O2, 5% CO2 and 90% N2 prior to the addition of [^3H]hypoxanthine. After a further incubation of 18 hrs, parasite DNA was harvested from each microtiter well using Packard Filtermate 196 Harvester (Meriden, Conn.) onto glass filters. Uptake of [^3H]hypoxanthine was measured with a Packard Topcount Scintillation. Concentration-response data were analyzed by a non-linear regression logistic dose response model and the IC50 values (50% inhibitory concentrations) for each compound were calculated. (Table 3). (b). In Vivo Antimalarial Studies against P. berghei in mice: The in vivo efficacy of the artelinic acid analogs were determined in a modified Thompson test. This test measures the survivability of mice and parasitemia clearance following administration of drug on days 3-5 post infection. In brief, 5×10^6 P. berghei-infected erythrocytes (KBG-173 strain) were inoculated intraperitoneally to female mice that weighed 24-30 g. By day three post-infection, parasitemia ranged from 1.0-3.7%. Each drug, dissolved in 5% sodium bicarbonate, was administered PO twice daily from day 3-5 post-infection. Total doses for each drug ranged from 1.5-384 mg/kg with 8 mice included in each dosage group. The percent suppression of parasitemia in the treated mice compared to the untreated controls was determined for each test compound; the SD-50 (fifty percent suppression dose) and SD-90 were determined from a non-linear regression logistic dose response fit at day 6 parasitemia data. Survival of mice to day 60 post-infection was considered a cure (C). Compounds were considered active (A) when the survival time of the treated mice was greater than twice the control mice, i.e., 12-14 day (Table 4-5). (c). Sporozoite Induced Test Each compound is ground with a mortar & pestle and suspended in 0.5% hydroxyethylcellulose—0.1% Tween 80 for compounds to be administered PO and those given SC are suspended in peanut oil. Each compound is prepared at 3 different dose levels as requested by WRAIR. Compounds are administered either PO or SC to mice once 4 hr before inoculation of sporozoites. Four-week-old male CD-1 mice, purchased from Charles River and weighing 16-17 g, are placed 5 per cage and allowed to acclimate for 4 days before being treated and then inoculated with sporozoites. They are fed food and water ad-lib and maintained at 76° F. with 12 hr light and 12 hr darkness. The cages and water bottles are changed biweekly. The mice are weighed on Days 0, 3 and 6 then biweekly when blood films are taken. Plasmodium yoelii (17×) is used to infect mice that will be used to infect the mosquitoes. […] Whole body weights are taken on Day 0 and Day 6 then twice a week for 31 days. A blood film is taken on Day 5 and then twice a week for 31 days. Mice loosing >20% of their body weight will be sacrificed. […]

[2] = Host toxicity in animal models (general statements); format: in vivo; details: any dose, all species of animal models studied
P. berghei ANKA = assay: In vivo antimalarial study against P. berghei in rats; set-up: species or system Plasmodium berghei

CC(=O)N(C(C)=O)c1nc(N(C(C)=O)C(C)=O)c2c(ccc3c2ccn3Cc2ccccc2C(F)(F)F)n1 [Compound 3e, 1,3-Bis(diacetylamino)-7-(2-trifluoromethyl)benzyl-7H-pyrrolo[3,2-f]quinazoline]
mice cured ([1]; dose groups from 0.625 to 40 mg/kg): 100% | parasitemia formation in sporozoite challenged mouse ([1]; doses from 0.65 to 40 mg/kg given orally for 3 consecutive days): completely prevented parasitemia formation | Number of Mice Cured ([1]; 0.15625 mg/kg): 4/5 | Number of Mice Cured ([1]; 0.3125 mg/kg): 4/5 | Number of Mice Cured ([1]; 0.625 mg/kg): 5/5 | Number of Mice Cured ([1]; 2.5 mg/kg): 5/5 | Number of Mice Cured ([1]; 10 mg/kg): 5/5 | Number of Mice Cured ([1]; 40 mg/kg): 5/5 | host toxicity in efficacy studies [2]: No host toxicity | cure against P. berghei in rats (P. berghei ANKA; 5 mg/kg intragastric daily x3 (days 6, 7, 8 post-inoculation)): 100% | cure against P. berghei in rats (P. berghei ANKA; 10 mg/kg intragastric daily x3): 100% | cure against P. berghei in rats (P. berghei ANKA; 20 mg/kg intragastric daily x3): 100%
